For this assay, the system named is multiple myeloma cell line, LP-1 cells. Put plainly: LP-1 viable cell number (WST-1), doxorubicin and KM 1468 administration methods (Example 3). The settings on record: 1 μmol/L doxorubicin, 1 μg/mL KM 1468, cells only = 100%. Type of assay: cell-based. How it is done:
Multiple myeloma cell line, LP-1 cells (DSMZ ACC41) were seeded in a 96-well culture plate in an amount of 100 μL/well (10,000 cells). Doxorubicin and anti-IGF monoclonal antibody […] were added, and the mixture was cultured at 37° C. for 3 days. The addition of doxorubicin and KM 1468 to the medium was conducted by the following three methods.
Method 1: Cells were cultured in 150 μL of a medium in which doxorubicin was solely added on day 1, and in 200 μL of a medium in which doxorubicin and KM 1468 were added on days 2 and 3.
Method 2: Cells were cultured in 150 μL of a medium in which KM 1468 were solely added on day 1, and in 200 μL of a medium in which doxorubicin and KM 1468 were added on days 2 and 3.
Method 3: Cells were cultured in a medium comprising doxorubicin and KM 1468 (an amount of the medium is 150 μL on day 1 and 200 μL each on days 2 and 3) for three days.
In all of the foregoing methods, doxorubicin and KM 1468 were added so that the final concentrations of doxorubicin and KM 1468 became 1 μmol/L and 1 μg/mL, respectively.
After the culturing, cell proliferation reagent WST-1 (manufactured by Roche) was added in an amount of 20 μL/well, and the mixture was cultured at 37° C. for from 2 to 3 hours. OD450 was measured with microplate reader M-SPmax 250 (manufactured by Molecular Devices). The number of viable cells after the treatment with the agent was expressed as a relative value when OD450 in which cells were solely added was regarded as 100%.
Background: Formazan colour is commonly taken as a measure of viable cells.

As to `COc1cccc2c1C(=O)c1c(O)c3c(c(O)c1C2=O)C[C@@](O)(C(=O)CO)C[C@@H]3O[C@H]1C[C@H](N)[C@H](O)[C@H](C)O1` [Doxorubicin], the “Relative value of cell number” value (Method 1 group: doxorubicin on day 1, doxorubicin and KM 1468 on days 2 and 3) was determined as 40%; the “Relative value of cell number” value (Method 2 group: KM 1468 on day 1, doxorubicin and KM 1468 on days 2 and 3) stood at 57%; the “Relative value of cell number” value (Method 3 group: doxorubicin and KM 1468 for three days) was found to be 44%.

For the origin of these results see patent publication US20060193772A1, “Drugs for treating cancer” (priority 2003, published 2006).
